Source: US7122693B2, “Acetaldehyde acetal compounds, their synthesis, and uses thereof” (Shire BioChem Inc., priority 1988, dated 2006)
“And” between values parts separate entries of the source, which are not always exact repeats. Equal entries are not always repeated. Where two headings read alike, the source gives them in different places.

Assays:
Assay type in all cases: cell-based
HIV-1 in H-9 cells [1] = test: RT activity, HIV-1 production in H-9 cells (Table 3)
HIV-1 in MT-4 cells [2] = test: Viable cell counts, cytolytic effect of HIV-1 on MT-4 cells; settings: for viability at 2 µg/mL: Human immunodeficiency virus 1, MT4, 144 h
Protocol: (§1) In vitro testing was conducted on several of the compounds of this invention to determine their inhibitory properties. The concentrations reported are μg/ml in the incubation media which affect the susceptibility of a continuous line of T-cells developed at the Lady Davis Institute for Medical Research (Montreal) by Dr. Mark A. Wainberg toward infection by HIV-1 following a protocol similar to that of H. Mitsuya and S. Broder, “Inhibition of the in vitro infectivity and cytopathic effect of human T-lymphotropic virus type III/lymphadenopathy-associated virus (HTLV-III/LAV) by 2′3′-dideoxynucleosides”, Proc. Natl. Acad. Sci. USA, 83, pp. 1911–15 (1986). Protection of the cell line from infection was monitored by staining with monoclonal antibodies against viral proteins in the standard manner (Table 1). In all experiments, comparisons were made with the drug AZT as the control. In order to confirm the results, the drug effects were monitored by measuring reverse transcriptase (RT) activity in the U-937 line of human monocytic cells as assayed in the usual manner with tritiated thymidine triphosphate (TTP) (Table 2). The drug effects on cell viability as measured by the well-know cytolytic effects of HIV-1 on the MT-4 cell line was evaluated in the accepted manner (Table 1).

HIV-1 in MT-4 cells [3] = test: Reverse transcriptase assay in MT-4 cells; settings: 2 μg/ml
HIV-1 in H-9 cells [4] = test: Reverse transcriptase assay, HIV-1 production in H-9 cells (Table 2); settings: 2 μg/ml
HIV-1 in MT-4 cells [5] = test: P-24 immunofluorescence in MT-4 cells (staining with monoclonal antibodies against viral proteins); settings: 2 μg/ml
Protocol: as §1

[6] = 7 days in culture (row between 14 and 21)
[7] = MT-4 cells, HIV-1, 6 days in culture, 2 μg/ml of compound
[8] = MT-4 cells, HIV-1, 6 days in culture, 2 μg/ml of compound, read-out: Cell Viability %

Structure (SMILES): Nc1ccn(C2COC(CO)O2)c(=O)n1 (stereo not drawn) [trans-(XXXVI), trans-2-hydromethyl-4-(cytosin-1′-yl)-1,3-dioxolane]
- RT activity (cpm) after 8 days (HIV-1 in H-9 cells [1]; inhibitor 10 μM): 4,608 cpm
- RT activity (cpm) after 12 days (HIV-1 in H-9 cells [1]; inhibitor 10 μM): 83,462 cpm
- RT activity (cpm) after 26 days (HIV-1 in H-9 cells [1]; inhibitor 10 μM): 312,478 cpm
- RT activity (cpm) after 8 days (HIV-1 in H-9 cells [1]; inhibitor 50 μM): 1,319 cpm
- RT activity (cpm) after 12 days (HIV-1 in H-9 cells [1]; inhibitor 50 μM): 758 cpm
- RT activity (cpm) after 26 days (HIV-1 in H-9 cells [1]; inhibitor 50 μM): 1,732 cpm

Structure (SMILES): Cc1cn(C2CC(N=[N+]=[N-])C(CO)O2)c(=O)[nH]c1=O (centres unmarked) [AZT, 3′-azido-2′,3′-dideoxythymidine, reference compound]
- viability at 2 µg/mL (HIV-1 in MT-4 cells [2]; read-out: Cell Viability %, MT-4 cells, HIV-1, 6 days in culture, 2 μg/ml of compound): 88.6%
- RT Activity (CPM × 1000)/ml (HIV-1 in MT-4 cells [3]; 3 days in culture): 1.564 (CPM × 1000)/ml
- RT Activity (CPM × 1000)/ml (HIV-1 in MT-4 cells [3]; 6 days in culture): 1.748 (CPM × 1000)/ml
- RT Activity (CPM × 1000)/ml (HIV-1 in H-9 cells [4]; 5 days in culture): 3.346 (CPM × 1000)/ml
- RT Activity (CPM × 1000)/ml (HIV-1 in H-9 cells [4]; [6]): 2.997 (CPM × 1000)/ml
- RT Activity (CPM × 1000)/ml (HIV-1 in H-9 cells [4]; 8 days in culture): 3.414 (CPM × 1000)/ml
- RT Activity (CPM × 1000)/ml (HIV-1 in H-9 cells [4]; 11 days in culture): 2.918 (CPM × 1000)/ml
- RT Activity (CPM × 1000)/ml (HIV-1 in H-9 cells [4]; 14 days in culture): 8.320 (CPM × 1000)/ml
- RT Activity (CPM × 1000)/ml (HIV-1 in H-9 cells [4]; 21 days in culture): 3.111 (CPM × 1000)/ml
- RT Activity (CPM × 1000)/ml (HIV-1 in H-9 cells [4]; 25 days in culture): 15.88 (CPM × 1000)/ml
- RT Activity (CPM × 1000)/ml (HIV-1 in H-9 cells [4]; 29 days in culture): 32.08 (CPM × 1000)/ml
- RT Activity (CPM × 1000)/ml (HIV-1 in H-9 cells [4]; 33 days in culture): 612.2 (CPM × 1000)/ml
- RT Activity (CPM × 1000)/ml (HIV-1 in H-9 cells [4]; 37 days in culture): 878.2 (CPM × 1000)/ml
- RT Activity (CPM × 1000)/ml (HIV-1 in H-9 cells [4]; 41 days in culture): 994.0 (CPM × 1000)/ml
- RT Activity (CPM × 1000)/ml (HIV-1 in H-9 cells [4]; 45 days in culture): 32.91 (CPM × 1000)/ml
- % Immunofluorescent Cells (P-24) (HIV-1 in MT-4 cells [5]; 3 days in culture): 1.0%
- % Immunofluorescent Cells (P-24) (HIV-1 in MT-4 cells [5]; 6 days in culture): 1.0%
- RT activity (cpm) after 8 days (HIV-1 in H-9 cells [1]; inhibitor 20 μM): 633 cpm and 587 cpm
- RT activity (cpm) after 26 days (HIV-1 in H-9 cells [1]; inhibitor 20 μM): 821 cpm and 679 cpm

Structure (SMILES): Nc1ccn(C2CSC(CO)O2)c(=O)n1 (stereo not drawn) [trans-XI, trans-2-hydroxymethyl-5-(cytosin-1′-yl)-1,3-oxathiolane]
- Cell Viability % (HIV-1 in MT-4 cells [2]; [7]): 24%

Structure (SMILES): O=c1ccn(C2CSC(CO)O2)c(=O)[nH]1 (stereo not drawn) [cis-XVIII, Cis-2-hydroxymethyl-5-(uracil-N-1′-yl)-1,3-oxathiolane]
- viability at 2 µg/mL (HIV-1 in MT-4 cells [2]; [8]): 14%

Structure (SMILES): Nc1ccn(C2C[S+]([O-])C(CO)O2)c(=O)n1 (single isomer, unassigned) [cis-XII (b), Cis-2-hydroxymethyl-5-(cytosin-1′-yl)-3-oxo-1,3-oxathiolane]
- viability at 2 µg/mL (HIV-1 in MT-4 cells [2]; [8]): 14%

Structure (SMILES): CN(C)C=Nc1ccn(C2CSC(CO)O2)c(=O)n1 (stereo not drawn) [cis-LIII, Cis-2-hydroxymethyl-5-(N-dimethylaminomethylenecytosin-1′-yl)-1,3-oxathiolane]
- viability at 2 µg/mL (HIV-1 in MT-4 cells [2]; [8]): 18%

Structure (SMILES): O=c1[nH]cnc2c1ncn2C1CSC(CO)O1 (stereo not drawn) [cis-LVI, Cis-2-hydroxymethyl-5-(6′-hydroxypurin-N-9′-yl)-1,3-oxathiolane]
- viability at 2 µg/mL (HIV-1 in MT-4 cells [2]; [8]): 11%

Structure (SMILES): Nc1ccn(C2CSC(CO)O2)c(=O)n1 (stereo not drawn) [cis-XI, Cis-2-hydroxymethyl-5-(cytosin-1′-yl)-1,3-oxathiolane]
- Cell Viability % (HIV-1 in MT-4 cells [2]; [7]): 87.4%
- RT Activity (CPM × 1000)/ml (HIV-1 in MT-4 cells [3]; 3 days in culture): 2.381 (CPM × 1000)/ml
- RT Activity (CPM × 1000)/ml (HIV-1 in MT-4 cells [3]; 6 days in culture): 2.301 (CPM × 1000)/ml
- RT Activity (CPM × 1000)/ml (HIV-1 in H-9 cells [4]; 5 days in culture): 3.077 (CPM × 1000)/ml
- RT Activity (CPM × 1000)/ml (HIV-1 in H-9 cells [4]; [6]): 2.399 (CPM × 1000)/ml
- RT Activity (CPM × 1000)/ml (HIV-1 in H-9 cells [4]; 8 days in culture): 5.853 (CPM × 1000)/ml
- RT Activity (CPM × 1000)/ml (HIV-1 in H-9 cells [4]; 11 days in culture): 3.560 (CPM × 1000)/ml
- RT Activity (CPM × 1000)/ml (HIV-1 in H-9 cells [4]; 14 days in culture): 2.872 (CPM × 1000)/ml
- RT Activity (CPM × 1000)/ml (HIV-1 in H-9 cells [4]; 21 days in culture): 2.907 (CPM × 1000)/ml
- RT Activity (CPM × 1000)/ml (HIV-1 in H-9 cells [4]; 25 days in culture): 4.020 (CPM × 1000)/ml
- RT Activity (CPM × 1000)/ml (HIV-1 in H-9 cells [4]; 29 days in culture): 3.756 (CPM × 1000)/ml
- RT Activity (CPM × 1000)/ml (HIV-1 in H-9 cells [4]; 33 days in culture): 3.803 (CPM × 1000)/ml
- RT Activity (CPM × 1000)/ml (HIV-1 in H-9 cells [4]; 37 days in culture): 4.193 (CPM × 1000)/ml
- RT Activity (CPM × 1000)/ml (HIV-1 in H-9 cells [4]; 41 days in culture): 4.515 (CPM × 1000)/ml
- RT Activity (CPM × 1000)/ml (HIV-1 in H-9 cells [4]; 45 days in culture): 3.441 (CPM × 1000)/ml
- % Immunofluorescent Cells (P-24) (HIV-1 in MT-4 cells [5]; 3 days in culture): 1.0%
- % Immunofluorescent Cells (P-24) (HIV-1 in MT-4 cells [5]; 6 days in culture): 7.6%
